{"source": "patent US6800770B2", "about": "“Anti-spasticity of an eicosanoid analog” (Virginia Commonwealth University, priority 2002, dated 2004)", "key": {"[1]": {"target": "T1, CB1 (Rattus norvegicus, UniProt P20272)", "T1 construct": "from whole rat brain membranes; from tissue; host or cells: whole rat brain membranes", "T1 sequence (P20272 whole entry)": "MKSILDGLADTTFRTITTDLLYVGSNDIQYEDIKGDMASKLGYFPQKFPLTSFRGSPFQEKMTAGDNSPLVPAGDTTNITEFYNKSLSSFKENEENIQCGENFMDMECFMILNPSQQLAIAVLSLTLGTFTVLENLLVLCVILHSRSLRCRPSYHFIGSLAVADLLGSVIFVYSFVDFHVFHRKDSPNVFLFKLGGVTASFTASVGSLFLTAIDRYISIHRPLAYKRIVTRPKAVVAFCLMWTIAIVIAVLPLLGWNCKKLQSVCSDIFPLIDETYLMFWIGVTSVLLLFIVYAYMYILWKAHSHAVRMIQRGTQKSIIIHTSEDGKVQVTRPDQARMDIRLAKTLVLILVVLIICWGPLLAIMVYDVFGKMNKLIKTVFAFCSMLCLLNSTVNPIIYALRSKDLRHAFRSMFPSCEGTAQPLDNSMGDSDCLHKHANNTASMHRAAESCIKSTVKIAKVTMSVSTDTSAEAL", "type": "binding", "details": "displacement of [3H]CP55940, whole rat brain membranes; means ± S.D., n=3; read-out: CB1 affinity (Ki)"}, "[2]": {"target": "T2, human VR1 receptors (Homo sapiens, UniProt Q8NER1)", "T2 construct": "expressed in transfected cells; host or cells: HEK-hVR1 cells", "T2 sequence (Q8NER1 whole entry)": "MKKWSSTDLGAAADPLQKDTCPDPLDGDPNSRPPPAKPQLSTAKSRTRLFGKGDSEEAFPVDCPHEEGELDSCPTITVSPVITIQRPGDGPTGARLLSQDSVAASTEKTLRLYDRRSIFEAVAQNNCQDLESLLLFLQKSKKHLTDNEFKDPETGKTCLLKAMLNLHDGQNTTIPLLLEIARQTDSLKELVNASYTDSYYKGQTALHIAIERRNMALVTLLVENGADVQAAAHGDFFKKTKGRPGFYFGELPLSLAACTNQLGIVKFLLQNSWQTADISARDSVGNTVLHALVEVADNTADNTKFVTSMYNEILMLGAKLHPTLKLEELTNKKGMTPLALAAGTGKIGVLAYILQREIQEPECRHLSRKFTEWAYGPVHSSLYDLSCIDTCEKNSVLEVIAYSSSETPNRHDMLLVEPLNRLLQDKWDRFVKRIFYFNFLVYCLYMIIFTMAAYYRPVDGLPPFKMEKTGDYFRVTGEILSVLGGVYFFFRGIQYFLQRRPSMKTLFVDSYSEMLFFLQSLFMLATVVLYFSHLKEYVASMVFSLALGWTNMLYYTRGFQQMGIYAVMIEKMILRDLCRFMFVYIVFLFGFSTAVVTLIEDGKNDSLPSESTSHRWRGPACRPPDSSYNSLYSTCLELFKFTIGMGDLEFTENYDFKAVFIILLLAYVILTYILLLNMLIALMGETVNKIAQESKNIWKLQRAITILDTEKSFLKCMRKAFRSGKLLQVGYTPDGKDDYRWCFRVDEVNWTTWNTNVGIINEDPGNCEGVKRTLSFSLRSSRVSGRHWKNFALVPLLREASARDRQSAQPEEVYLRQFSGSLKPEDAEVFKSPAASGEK", "test": "Enhancement of [Ca2+] via HEK-hVR1 cells", "type": "cell-based", "description": "J. Pharm. Exp. Ther. 300: 984."}, "[3]": {"test_system": "spasticity in Biozzi ABH mice", "details": "0.05 mg/kg i.v.; baseline vs 30 min after treatment", "method": "This was assessed to detect limb stiffness by analysis using a strain gauge (Baker et al 2000). The analogue signal from the strain gauge was amplified and digitally converted using an ComputerBoards Inc PCM-DAS16S/12 card (Amplicon, Brighton, UK). This was captured using Dacquire V10 software (D.Buckwell, Institute of Neurology, UK) and analyzed using Spike 2 software (Cambridge Electronics Design, UK). The hindlimbs were fully extended twice then moved to full flexion against the strain gauge. The mean of 4-8 individual readings per limb was taken for each time point. Results are expressed as means of forces of resistance to flexion (in Newtons) and SEM per group.\nStatistical analysis was performed using Sigmastat 2.0 (Jandel/SPSS, USA) using one-way repeated measures analysis of variance (ANOVA) incorporating a pair-wise Student-Newman-Keuls (SNK) test. […] N=13 limbs analyzed from 8 spastic animals.\nArvanil treatment was carried out with and without pretreatment of the animals with SR141617A, SR144528 (known to inhibit CB1 and CB2 receptor function, respectively) and capsazepine, a known antagonist of the vanilloid recpetor (VR-1)."}}}
{"smiles": "CCCCC/C=C\\C/C=C\\C/C=C\\C/C=C\\CCCC(=O)N(Cc1ccc(O)c(Cl)c1)Cc1ccc(O)c(Cl)c1", "note": "[O-2093, N,N-Di-3-chloro-4-hydroxybenzylarachadonamide]", "values": [{"measurement": "Ki", "setting": "[1]", "result": "1290 ± 140", "unit": "nM"}, {"measurement": "Emax", "setting": "[2]; in parentheses in the hVR1 potency column, read-out: hVR1 efficacy (maximal effect as percentage of the effect of 4 μM capsaicin)", "result": 26.9, "unit": "%"}, {"measurement": "EC50", "setting": "[2]; read-out: hVR1 potency (EC50), means ± S.D., n=3", "result": "> 50000", "unit": "nM"}, {"measurement": "decrease in resistance to flexion", "setting": "[3]", "result": "~35", "unit": "%"}]}
